Where no end group is shown, it is not given here. The star is where a group is joined. Propionyl = CCC(=O)*
Experiments:
[1] = molecular target: T1, PrP^Sc (Bos taurus, UniProt P10279); format: binding, cattle
[2] = molecular target: T1, PrP^Sc; format: binding, cattle; conditions: pH 3
[3] = test system: PrP^Sc

Arg-Val-Val-Ile-Ala [Peptide 1]
PrP^Sc binding efficiency (relative) [1]: 54.7%

Gly-Val-Val-Ile-Ala [Peptide 6]
PrP^Sc binding efficiency (relative) [1]: 64.5%

Leu-Pro-Phe-Phe-Asp (LPFFD; beta-sheet binding peptide) [Peptide 3]
PrP^Sc binding efficiency (relative) [1]: 46.6%

Lys-Leu-Val-Phe-Phe [Peptide 2]
PrP^Sc binding efficiency (relative) [1]: 100.0% | Elution efficiency [2]: remained almost completely bound | Extinction at 450 nm, BSE-positive versus BSE-negative animals [3]: significantly (t-test) raised

Propionyl-DArg-DArg-DA1a-DPhe-DPhe-DVal-amide [Peptide 7]
PrP^Sc binding efficiency (relative) [1]: 76.5%

Propionyl-IIGL [Peptide 4]
PrP^Sc binding efficiency (relative) [1]: 55.1%

Propionyl-RIIGL [Peptide 5]
PrP^Sc binding efficiency (relative) [1]: 58.1%

Reference: patent US20060094071A1 (priority 2002, published 2006)
